Assay results: the NIST ThermoML archive (doi:10.1021/je8008073)

Assay: wn = mass fraction of the nth substance listed
Settings: Liquid; for mass density: Vibrating tube method; for viscosity: Falling or rolling sphere viscometry

c1ccc2c(c1)CCCC2 [1,2,3,4-tetrahydronaphthalene] + CCCCCCCCCCCC
Settings	mass density [kg/m3]	viscosity [mPa·s]
293.15 K, 100 kPa, w2 = 0.5	844.4	–
293.15 K, 2000 kPa, w2 = 0.5	845.7	–
293.15 K, 4000 kPa, w2 = 0.5	846.8	–
293.15 K, 6000 kPa, w2 = 0.5	848	–
293.15 K, 8000 kPa, w2 = 0.5	849.5	–
293.15 K, 10000 kPa, w2 = 0.5	850.8	–
293.15 K, 12000 kPa, w2 = 0.5	851.9	–
293.15 K, 14000 kPa, w2 = 0.5	853.1	–
293.15 K, 16000 kPa, w2 = 0.5	854.2	–
293.15 K, 18000 kPa, w2 = 0.5	855.4	–
293.15 K, 20000 kPa, w2 = 0.5	856.6	–
295.65 K, 100 kPa, w2 = 0.5	842.4	–
295.65 K, 2000 kPa, w2 = 0.5	843.6	–
295.65 K, 4000 kPa, w2 = 0.5	844.9	–
295.65 K, 6000 kPa, w2 = 0.5	846	–
295.65 K, 8000 kPa, w2 = 0.5	847.4	–
295.65 K, 10000 kPa, w2 = 0.5	848.6	–
295.65 K, 12000 kPa, w2 = 0.5	849.8	–
295.65 K, 14000 kPa, w2 = 0.5	851	–
295.65 K, 16000 kPa, w2 = 0.5	852.1	–
295.65 K, 18000 kPa, w2 = 0.5	853.3	–
295.65 K, 20000 kPa, w2 = 0.5	854.4	–
298.15 K, 100 kPa, w1 = 0.48	835.7	–
298.15 K, 100 kPa, w1 = 0.49	838.4	–
298.15 K, 100 kPa, w1 = 0.5	840.7	–
298.15 K, 100 kPa, w1 = 0.51	842.7	–
298.15 K, 100 kPa, w1 = 0.52	844.8	–
298.15 K, 100 kPa, w2 = 0.5	840.7	1.46
298.15 K, 2000 kPa, w1 = 0.48	836.9	–
298.15 K, 2000 kPa, w1 = 0.49	839.7	–
298.15 K, 2000 kPa, w1 = 0.5	842	–
298.15 K, 2000 kPa, w1 = 0.51	844	–
298.15 K, 2000 kPa, w1 = 0.52	846.1	–
298.15 K, 2000 kPa, w2 = 0.5	842	–
298.15 K, 4000 kPa, w1 = 0.48	838.3	–
298.15 K, 4000 kPa, w1 = 0.49	841	–
298.15 K, 4000 kPa, w1 = 0.5	843.4	–
298.15 K, 4000 kPa, w1 = 0.51	845.3	–
298.15 K, 4000 kPa, w1 = 0.52	847.5	–
298.15 K, 4000 kPa, w2 = 0.5	843.4	1.53
298.15 K, 6000 kPa, w1 = 0.48	839.6	–
298.15 K, 6000 kPa, w1 = 0.49	842.2	–
298.15 K, 6000 kPa, w1 = 0.5	844.7	–
298.15 K, 6000 kPa, w1 = 0.51	846.5	–
298.15 K, 6000 kPa, w1 = 0.52	848.7	–
298.15 K, 6000 kPa, w2 = 0.5	844.7	–
298.15 K, 8000 kPa, w1 = 0.48	840.9	–
298.15 K, 8000 kPa, w1 = 0.49	843.5	–
298.15 K, 8000 kPa, w1 = 0.5	845.9	–
298.15 K, 8000 kPa, w1 = 0.51	847.8	–
298.15 K, 8000 kPa, w1 = 0.52	849.9	–
298.15 K, 8000 kPa, w2 = 0.5	845.9	–
298.15 K, 10000 kPa, w1 = 0.48	842.1	–
298.15 K, 10000 kPa, w1 = 0.49	844.7	–
298.15 K, 10000 kPa, w1 = 0.5	847.1	–
298.15 K, 10000 kPa, w1 = 0.51	848.8	–
298.15 K, 10000 kPa, w1 = 0.52	851.1	–
298.15 K, 10000 kPa, w2 = 0.5	847.1	1.64
298.15 K, 12000 kPa, w1 = 0.48	843.3	–
298.15 K, 12000 kPa, w1 = 0.49	845.9	–
298.15 K, 12000 kPa, w1 = 0.5	848.4	–
298.15 K, 12000 kPa, w1 = 0.51	850.3	–
298.15 K, 12000 kPa, w1 = 0.52	852.2	–
298.15 K, 12000 kPa, w2 = 0.5	848.4	–
298.15 K, 14000 kPa, w1 = 0.48	844.6	–
298.15 K, 14000 kPa, w1 = 0.49	847.1	–
298.15 K, 14000 kPa, w1 = 0.5	849.5	–
298.15 K, 14000 kPa, w1 = 0.51	851.5	–
298.15 K, 14000 kPa, w1 = 0.52	853.5	–
298.15 K, 14000 kPa, w2 = 0.5	849.5	–
298.15 K, 16000 kPa, w1 = 0.48	845.7	–
298.15 K, 16000 kPa, w1 = 0.49	848.3	–
298.15 K, 16000 kPa, w1 = 0.5	850.7	–
298.15 K, 16000 kPa, w1 = 0.51	852.7	–
298.15 K, 16000 kPa, w1 = 0.52	854.6	–
298.15 K, 16000 kPa, w2 = 0.5	850.7	–
298.15 K, 18000 kPa, w1 = 0.48	846.9	–
298.15 K, 18000 kPa, w1 = 0.49	849.3	–
298.15 K, 18000 kPa, w1 = 0.5	851.9	–
298.15 K, 18000 kPa, w1 = 0.51	853.8	–
298.15 K, 18000 kPa, w1 = 0.52	855.7	–
298.15 K, 18000 kPa, w2 = 0.5	851.9	–
298.15 K, 20000 kPa, w1 = 0.48	848.1	–
298.15 K, 20000 kPa, w1 = 0.49	850.6	–
298.15 K, 20000 kPa, w1 = 0.5	853	–
298.15 K, 20000 kPa, w1 = 0.51	855	–
298.15 K, 20000 kPa, w1 = 0.52	857	–
298.15 K, 20000 kPa, w2 = 0.5	853	–
300.65 K, 100 kPa, w2 = 0.5	838.8	–
300.65 K, 2000 kPa, w2 = 0.5	840	–
300.65 K, 4000 kPa, w2 = 0.5	841.3	–
300.65 K, 6000 kPa, w2 = 0.5	842.5	–
300.65 K, 8000 kPa, w2 = 0.5	843.8	–
300.65 K, 10000 kPa, w2 = 0.5	845	–
300.65 K, 12000 kPa, w2 = 0.5	846.3	–
300.65 K, 14000 kPa, w2 = 0.5	847.5	–
300.65 K, 16000 kPa, w2 = 0.5	848.8	–
300.65 K, 18000 kPa, w2 = 0.5	849.9	–
300.65 K, 20000 kPa, w2 = 0.5	851	–
303.15 K, 100 kPa, w2 = 0.5	837.3	–
303.15 K, 2000 kPa, w2 = 0.5	838.5	–
303.15 K, 4000 kPa, w2 = 0.5	839.9	–
303.15 K, 6000 kPa, w2 = 0.5	841.1	–
303.15 K, 8000 kPa, w2 = 0.5	842.4	–
303.15 K, 10000 kPa, w2 = 0.5	843.6	–
303.15 K, 12000 kPa, w2 = 0.5	844.9	–
303.15 K, 14000 kPa, w2 = 0.5	846.1	–
303.15 K, 16000 kPa, w2 = 0.5	847.5	–
303.15 K, 18000 kPa, w2 = 0.5	848.7	–
303.15 K, 20000 kPa, w2 = 0.5	849.8	–
